Data as given in US11512053B2, “Arginine methyltransferase inhibitors and uses thereof” (priority 2013, dated 2022).
pIC50: −log10 of the molar value.

Target: T1, full-length human PRMT3 isoform 1 (GST-tagged) (Homo sapiens, UniProt O60678)
T1 construct: GST-tagged PRMT3; made in house; host or cells: E. coli BL21(DE3) Gold
Assay: PRMT3 Biochemical Assay (3H-SAM Flashplate, peptide substrate)
Details: single experiment or average of multiple experiments
From the text: General Materials. S-adenosylmethionine (SAM), S-adenosylhomocysteine (SAH), bicine, Tween20, dimethylsulfoxide (DMSO), bovine skin gelatin (BSG),), isopropyl-β-D-thiogalactopyranoside (IPTG), and Tris(2-carboxyethyl)phosphine hydrochloride solution (TCEP) were purchased from Sigma-Aldrich at the highest level of purity possible. ^3H-SAM was purchase from American Radiolabeled Chemicals with a specific activity of 80 Ci/mmol. 384-well streptavidin Flashplates were purchased from PerkinElmer.
Substrates. Peptide containing the classic RMT substrate motif was synthesized with an N-terminal linker-affinity tag motif and a C-terminal amide cap by 21st Century Biochemicals. The peptide was purified by high-performance liquid chromatography (HPLC) to greater than 95% purity and confirmed by liquid chromatography mass spectrometry (LC-MS). The sequence was Biot-Ahx-[…]-amide (SEQ ID NO.:11).
Molecular Biology: Full-length human PRMT3 (NM_005788.3) isoform 1 transcript clone was amplified from an HEK 293 cDNA library and subcloned into pGEX-KG (GE Life Sciences). The resulting construct encodes an N-terminal GST tag and a thrombin cleavage sequence ([…] […] […] […] S) (SEQ ID NO.:12) fused directly to Cys 2 of PRMT3.
Protein Expression. E. coli (BL21(DE3) Gold, Stratagene) made competent by the CaCl2) method were transformed with the PRMT3 construct and ampicillin selection. Protein over-expression was accomplished by growing the PRMT3 expressing E. coli clone and inducing expression with 0.3 mM IPTG at 16° C. The culture was grown for 12 hours, harvested by centrifugation, and stored at −80° C. for purification.
Protein Purification. […] GST-tagged PRMT3 was eluted with 50 mM Tris, 2 mM glutathione, pH 7.1 and 50 mM Tris, 20 mM glutathione, pH 7.1. Pooled fractions were dialysed in 20 mM Tris, 50 mM NaCl, 5% glycerol, 1 mM EDTA, 1 mM DTT, pH7.5 (Buffer B) and applied to a Q Sepharose Fast Flow column. GST-tagged PRMT3 was eluted by 500 mM NaCl in buffer B. Pooled fractions were dialyzed in 25 mM phosphate buffer, 100 mM NaCl, 5% glycerol, 2 mM DTT, pH 6.8 (Buffer C) and loaded on to a ceramic hydroxyapatite column. GST-tagged PRMT3 eluted with 25-400 mM phosphate in buffer C. Protein was concentrated and buffer was exchanged to 20 mM Tris, 150 mM NaCl, 5% glycerol, 5 mM β-mercaptoethanol, pH7.8 by ultrafiltration. The purity of recovered protein was 70%.
General Procedure for PRMT3 Enzyme Assays on Peptide Substrates. The assays were all performed in a buffer consisting of 20 mM Bicine (pH=7.6), 1 mM TCEP, 0.005% BSG, and 0.002% Tween 20, prepared on the day of use. Compounds in 100% DMSO (1 ul) were spotted into a polypropylene 384-well V-bottom plates (Greiner) using a Platemate Plus outfitted with a 384-channel head (Thermo Scientific). DMSO (1 ul) was added to Columns 11, 12, 23, 24, rows A-H for the maximum signal control and 1 ul of SAH, a known product and inhibitor of PRMT3, was added to columns 11, 12, 23, 24, rows I-P for the minimum signal control. A cocktail (40 ul) containing the PRMT3 enzyme was added by Multidrop Combi (Thermo-Fisher). The compounds were allowed to incubate with PRMT3 for 30 min at room temperature, then a cocktail (10 ul) containing SAM and peptide was added to initiate the reaction (final volume=51 ul). The final concentrations of the components were as follows: PRMT3 was 0.5 nM, ^3H-SAM was 100 nM, non-radiolabeled SAM was 1.8 uM, peptide was 330 nM, SAH in the minimum signal control wells was 1 mM, and the DMSO concentration was 2%. The assays were stopped by the addition of potassium chloride (10 ul) to a final concentration of 100 mM. 50 ul of the reaction in the 384-well polypropylene plate was then transferred to a 384-well Flashplate and the biotinylated peptides were allowed to bind to the streptavidin surface for at least 1 hour before being washed once with 0.1% Tween20 in a Biotek ELx405 plate washer. […]

T1 sequence (O60678 with tags, fused parts or gaps): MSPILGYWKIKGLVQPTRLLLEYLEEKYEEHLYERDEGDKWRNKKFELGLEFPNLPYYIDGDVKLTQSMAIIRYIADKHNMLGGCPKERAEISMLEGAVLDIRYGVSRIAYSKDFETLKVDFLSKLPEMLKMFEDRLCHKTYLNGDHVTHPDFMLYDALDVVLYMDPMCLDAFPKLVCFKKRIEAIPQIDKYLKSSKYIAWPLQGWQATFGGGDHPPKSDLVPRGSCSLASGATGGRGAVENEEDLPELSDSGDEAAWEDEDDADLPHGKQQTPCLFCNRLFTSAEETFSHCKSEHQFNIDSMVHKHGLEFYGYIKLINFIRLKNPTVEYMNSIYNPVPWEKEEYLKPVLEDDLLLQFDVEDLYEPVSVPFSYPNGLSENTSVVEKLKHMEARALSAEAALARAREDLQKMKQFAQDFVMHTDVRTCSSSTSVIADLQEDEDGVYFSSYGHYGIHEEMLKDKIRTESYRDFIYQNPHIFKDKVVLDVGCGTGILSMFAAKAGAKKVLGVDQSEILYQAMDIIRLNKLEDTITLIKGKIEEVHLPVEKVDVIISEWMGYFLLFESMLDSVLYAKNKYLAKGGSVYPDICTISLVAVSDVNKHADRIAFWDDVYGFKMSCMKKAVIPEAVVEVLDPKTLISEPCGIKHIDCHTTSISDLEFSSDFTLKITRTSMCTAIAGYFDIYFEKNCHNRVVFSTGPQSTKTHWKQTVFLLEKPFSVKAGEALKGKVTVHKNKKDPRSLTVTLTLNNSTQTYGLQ

SMILES: CNCCN(C)Cc1c[nH]nc1C#Cc1ccccc1 [Compound 3]
- pIC50: 5.03
